The test concerns the target T1, breast cancer resistance protein (BCRP) (Homo sapiens, UniProt Q9UNQ0).
T1 sequence (Q9UNQ0 1-655): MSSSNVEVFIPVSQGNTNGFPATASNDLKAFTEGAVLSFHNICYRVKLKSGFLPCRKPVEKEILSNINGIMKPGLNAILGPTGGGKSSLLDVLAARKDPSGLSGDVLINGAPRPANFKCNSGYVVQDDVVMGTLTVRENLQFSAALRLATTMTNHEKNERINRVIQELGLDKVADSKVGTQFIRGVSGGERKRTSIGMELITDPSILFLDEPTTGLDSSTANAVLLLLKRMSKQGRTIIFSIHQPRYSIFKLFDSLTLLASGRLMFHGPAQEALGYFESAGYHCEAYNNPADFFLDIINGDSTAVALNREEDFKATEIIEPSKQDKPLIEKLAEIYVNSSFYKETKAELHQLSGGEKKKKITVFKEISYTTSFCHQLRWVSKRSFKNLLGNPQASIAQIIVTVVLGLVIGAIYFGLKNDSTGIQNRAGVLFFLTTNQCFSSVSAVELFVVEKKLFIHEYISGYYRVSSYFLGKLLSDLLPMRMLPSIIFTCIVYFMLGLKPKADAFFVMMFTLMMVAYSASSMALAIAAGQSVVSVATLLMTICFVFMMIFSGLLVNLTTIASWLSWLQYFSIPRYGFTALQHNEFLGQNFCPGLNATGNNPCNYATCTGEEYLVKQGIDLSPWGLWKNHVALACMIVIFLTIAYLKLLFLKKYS
Put plainly: mitoxantrone accumulation in BCRP-overexpressing PLB985 cells, flow cytometry. The test is classed as cell-based. (A flow cytometer gives signals particle by particle.)

With `COc1cc(N)c(Cl)cc1C(=O)NC1CCN(CCCOc2ccc(F)cc2)CC1OC` (centres unmarked) [cisapride], 0.4 ± 0.1 µM corresponded to half-maximal inhibition (IC50). The value for `O=C(Nc1c(Cl)cncc1Cl)c1ccc(OC(F)F)c(OCC2CC2)c1` [roflumilast] was 0.9 ± 0.2 µM.

A word on the IC50: it is the concentration needed to halve the response being measured.

The values are drawn from publication PMC5302078 (Journal of Biomolecular Screening, 2016).
